Measurements from article PMC10489980, “Design of Potent and Salt-Insensitive Antimicrobial Branched Peptides” (Polymers, 2023).
Like-named read-outs stand apart in the source and are kept apart here. Positions of bridges follow the written chain, without caps; N, C: chain ends. Residues, ends and D or L forms follow the SMILES beside them. Chains are numbered I, II in the order given. *: point of attachment. Fmoc = O=C(OCC1c2ccccc2-c2ccccc21)*

How the values were obtained:
Type in all cases: cell-based
[1] = tested on: Staphylococcus aureus 29213
Text: (§1) Ten organisms obtained from the American Type Culture Collection (ATCC; Rockville, MD) were used for antimicrobial assays. Four Gram-negative bacteria included Escherichia coli ATCC 25922, Pseudomonas aeruginosa ATCC 27853, Klebsiella oxytoca ATCC 49131, and Proteus vulgaris ATCC 49132. The three Gram-positive bacteria were Staphylococcus aureus 29213, Micrococcus luteus ATCC 49,732, and Enterococcus faecalis ATCC 29212. The three fungi were Candida albicans ATCC 37092, Candida kefyr ATCC 37095, and Candida tropicalis ATCC 37097. The clinical isolates were obtained from Singapore General Hospital (SGH). They are Enterococcus faecium, Staphylococcus aureus, Klebsiella pneumoniae, Acinetobacter baumannii, Pseudomonas aeruginosa, and Enterobacter species. The strains were incubated in trypticase soy broth (TSB), which was prepared in double distilled water and autoclaved for sterilization. TSB was purchased from Becton-Dickinson (Cockeysville, MD, USA).
(§2) Antimicrobial Assays. A sensitive and reproducible two-stage radial diffusion antimicrobial assay of Lehrer et al. was employed. A 1–4 × 10^6 colony-forming unit/mL of the test organism was mixed with 10 mL of molten underlay gel solution and poured into Petri dishes to form a uniform layer. The gel solution consisted of 10 mM sodium phosphate buffer, 0.03% TSB, and 0.02% Tween-20, with the addition of 100 mM NaCl in the case of high-salt conditions. Upon gel solidification, gel wells were made by a 3-mm diameter template in an evenly spaced array. A 5 µL aliquot of a serial half-log dilution of test peptides at seven concentrations was added to each well after removal of gel plugs. The dishes were incubated at 37 °C for 3 h to allow peptide diffusion into the underlay gels. Gels were overlaid with 10 mL of 1% agarose in 6% TSB (wt/vol). After additional incubation at 37 °C for 16–24 h, the diameter of the clear zone surrounding the wells (colony-free) was measured under a microscope. Antimicrobial activities were expressed in units (0.1 mm = 1 unit), and the MICs (in µM) were determined from the x-intercepts of the dose-response curves. Experiments were performed in triplicates.

[2] = tested on: Candida albicans ATCC 37092
Text: as §1, §2

Candida kefyr ATCC 37095 = tested on: Candida kefyr ATCC 37095
Text: as §1, §2

[3] = tested on: Pseudomonas aeruginosa ATCC 27853
Text: as §1, §2

[4] = tested on: Escherichia coli ATCC 25922
Text: as §1, §2

[5] = tested on: Micrococcus luteus ATCC 49,732
Text: as §1, §2

[6] = tested on: Candida tropicalis ATCC 37097
Text: as §1, §2

[7] = tested on: Enterococcus faecalis ATCC 29212
Text: as §1, §2

[8] = tested on: Klebsiella oxytoca ATCC 49131
Text: as §1, §2

[9] = tested on: Proteus vulgaris ATCC 49132
Text: as §1, §2

MIC, S. aureus, H-Salt ([1]; 29213, 3 h)	MIC, S. aureus, L-Salt ([1]; 29213, 3 h)	MIC, C. albicans, H-Salt ([2]; ATCC 37092, 3 h)	MIC, C. albicans, L-Salt ([2]; ATCC 37092, 3 h)	MIC, C. kefyr, H-Salt (Candida kefyr ATCC 37095; ATCC 37095, 3 h)	MIC, C. kefyr, L-Salt (Candida kefyr ATCC 37095; ATCC 37095, 3 h)	MIC, P. aeruginosa, H-Salt ([3]; ATCC 27853, 3 h)	MIC, P. aeruginosa, L-Salt ([3]; ATCC 27853, 3 h)	MIC, E. coli, H-Salt ([4]; ATCC 25922, 3 h)	MIC, E. coli, L-Salt ([4]; ATCC 25922, 3 h)	MIC, M. luteus, H-Salt ([5]; ATCC 49, 3 h)	MIC, M. luteus, L-Salt ([5]; ATCC 49, 3 h)	MIC, C. tropicalis, H-Salt ([6]; ATCC 37097, 3 h)	MIC, C. tropicalis, L-Salt ([6]; ATCC 37097, 3 h)	MIC, E. faecalis, H-Salt ([7]; ATCC 29212, 3 h)	MIC, E. faecalis, L-Salt ([7]; ATCC 29212, 3 h)	MIC, K. oxytoca, H-Salt ([8]; ATCC 49131, 3 h)	MIC, K. oxytoca, L-Salt ([8]; ATCC 49131, 3 h)	MIC, P. vulgaris, H-Salt ([9]; ATCC 49132, 3 h)	MIC, P. vulgaris, L-Salt ([9]; ATCC 49132, 3 h)	Structure (SMILES)	other results
																				CC(=O)NCCCC[C@H](NC(=O)[C@H](CCCNC(=N)N)NC(=O)[C@H](Cc1ccc(O)cc1)NC(=O)[C@H](CC(C)C)NC(=O)[C@@H](N)CCCNC(=N)N)C(=O)NCCCC[C@H](NC(=O)[C@H](CCCNC(=N)N)NC(=O)[C@H](Cc1ccc(O)cc1)NC(=O)[C@H](CC(C)C)NC(=O)[C@@H](N)CCCNC(=N)N)C(=O)NCCCC[C@H](NC(=O)[C@H](CCCNC(=N)N)NC(=O)[C@H](Cc1ccc(O)cc1)NC(=O)[C@H](CC(C)C)NC(=O)[C@@H](N)CCCNC(=N)N)C(=O)NCCCC[C@H](NC(=O)[C@H](CCCNC(=N)N)NC(=O)[C@H](Cc1ccc(O)cc1)NC(=O)[C@H](CC(C)C)NC(=O)[C@@H](N)CCCNC(=N)N)C(N)=O [iK4R] (HELM PEPTIDE1{R.L.Y.R.K}|PEPTIDE2{[ac]}|PEPTIDE3{R.L.Y.R.K}|PEPTIDE4{R.L.Y.R.K}|PEPTIDE5{R.L.Y.R.K.[am]}$PEPTIDE1,PEPTIDE2,5:R3-1:R2|PEPTIDE1,PEPTIDE3,5:R2-5:R3|PEPTIDE3,PEPTIDE4,5:R2-5:R3|PEPTIDE4,PEPTIDE5,5:R2-5:R3$$$V2.0)	MIC, S. aureus, H-Salt ([1]; strain 29213, radial diffusion assay, high-salt (100 mM NaCl), triplicates): 0.6 µM; MIC, S. aureus, L-Salt ([1]; strain 29213, radial diffusion assay, low-salt (without NaCl), triplicates): 0.7 µM; MIC, C. albicans, H-Salt ([2]; ATCC 37092, radial diffusion assay, high-salt (100 mM NaCl), triplicates): 0.9 µM; MIC, C. albicans, L-Salt ([2]; ATCC 37092, radial diffusion assay, low-salt (without NaCl), triplicates): 0.8 µM; MIC, C. kefyr, H-Salt (Candida kefyr ATCC 37095; ATCC 37095, radial diffusion assay, high-salt (100 mM NaCl), triplicates): 0.8 µM; MIC, C. kefyr, L-Salt (Candida kefyr ATCC 37095; ATCC 37095, radial diffusion assay, low-salt (without NaCl), triplicates): 0.8 µM; MIC, P. aeruginosa, H-Salt ([3]; ATCC 27853, radial diffusion assay, high-salt (100 mM NaCl), triplicates): 0.7 µM; MIC, P. aeruginosa, L-Salt ([3]; ATCC 27853, radial diffusion assay, low-salt (without NaCl), triplicates): 0.5 µM; MIC, E. coli, H-Salt ([4]; ATCC 25922, two-stage radial diffusion assay, high-salt (underlay gel 10 mM sodium phosphate, 0.03% TSB, 0.02% Tween-20, with 100 mM NaCl), 37 °C, x-intercept of dose-response curve, triplicates): 0.4 µM; MIC, E. coli, L-Salt ([4]; ATCC 25922, two-stage radial diffusion assay, low-salt (underlay gel 10 mM sodium phosphate, 0.03% TSB, 0.02% Tween-20, without NaCl), 37 °C, x-intercept of dose-response curve, triplicates): 0.4 µM; MIC, M. luteus, H-Salt ([5]; ATCC 49,732, radial diffusion assay, high-salt (100 mM NaCl), triplicates): 0.8 µM; MIC, M. luteus, L-Salt ([5]; ATCC 49,732, radial diffusion assay, low-salt (without NaCl), triplicates): 0.9 µM; MIC, C. tropicalis, H-Salt ([6]; ATCC 37097, radial diffusion assay, high-salt (100 mM NaCl), triplicates): 1.3 µM; MIC, C. tropicalis, L-Salt ([6]; ATCC 37097, radial diffusion assay, low-salt (without NaCl), triplicates): 0.5 µM; MIC, E. faecalis, H-Salt ([7]; ATCC 29212, radial diffusion assay, high-salt (100 mM NaCl), triplicates): 1.4 µM; MIC, E. faecalis, L-Salt ([7]; ATCC 29212, radial diffusion assay, low-salt (without NaCl), triplicates): 0.8 µM; MIC, K. oxytoca, H-Salt ([8]; ATCC 49131, radial diffusion assay, high-salt (100 mM NaCl), triplicates): 0.7 µM; MIC, K. oxytoca, L-Salt ([8]; ATCC 49131, radial diffusion assay, low-salt (without NaCl), triplicates): 0.5 µM; MIC, P. vulgaris, H-Salt ([9]; ATCC 49132, radial diffusion assay, high-salt (100 mM NaCl), triplicates): 0.7 µM; MIC, P. vulgaris, L-Salt ([9]; ATCC 49132, radial diffusion assay, low-salt (without NaCl), triplicates): 0.8 µM
56.2 µM	17.2 µM	12.4 µM	4.8 µM	2.0 µM	1.3 µM	3.2 µM	5.8 µM	12.8 µM	1.3 µM	8.8 µM	3.1 µM	2.3 µM	2.8 µM	> 500 µM	51.6 µM	5.4 µM	2.2 µM	27.6 µM	8.3 µM	CC(=O)NCCC[C@H](NC(=O)[C@H](CCCNC(=N)N)NC(=O)[C@H](Cc1ccc(O)cc1)NC(=O)[C@H](CC(C)C)NC(=O)[C@@H](N)CCCNC(=N)N)C(=O)NCCC[C@H](NC(=O)[C@H](CCCNC(=N)N)NC(=O)[C@H](Cc1ccc(O)cc1)NC(=O)[C@H](CC(C)C)NC(=O)[C@@H](N)CCCNC(=N)N)C(=O)NCCC[C@H](NC(=O)[C@H](CCCNC(=N)N)NC(=O)[C@H](Cc1ccc(O)cc1)NC(=O)[C@H](CC(C)C)NC(=O)[C@@H](N)CCCNC(=N)N)C(N)=O [iO3R] (HELM PEPTIDE1{R.L.Y.R.[Orn]}|PEPTIDE2{[ac]}|PEPTIDE3{R.L.Y.R.[Orn]}|PEPTIDE4{R.L.Y.R.[Orn].[am]}$PEPTIDE1,PEPTIDE2,5:R3-1:R2|PEPTIDE1,PEPTIDE3,5:R2-5:R3|PEPTIDE3,PEPTIDE4,5:R2-5:R3$$$V2.0)	
0.7 µM	0.8 µM	0.8 µM	0.8 µM	0.7 µM	0.6 µM	0.8 µM	0.6 µM	0.5 µM	0.5 µM	0.6 µM	1.0 µM	0.9 µM	1.2 µM	1.6 µM	0.8 µM	1.3 µM	0.5 µM	0.7 µM	0.6 µM	CC(C)C[C@H](NC(=O)[C@@H](N)CCCNC(=N)N)C(=O)N[C@@H](Cc1ccc(O)cc1)C(=O)N[C@@H](CCCNC(=N)N)C(=O)NCCCC[C@H](NC(=O)[C@H](CCCNC(=N)N)NC(=O)[C@H](Cc1ccc(O)cc1)NC(=O)[C@H](CC(C)C)NC(=O)[C@@H](N)CCCNC(=N)N)C(=O)NCCCC[C@H](NC(=O)[C@H](CCCNC(=N)N)NC(=O)[C@H](Cc1ccc(O)cc1)NC(=O)[C@H](CC(C)C)NC(=O)[C@@H](N)CCCNC(=N)N)C(=O)NCCCC[C@H](NC(=O)[C@H](CCCNC(=N)N)NC(=O)[C@H](Cc1ccc(O)cc1)NC(=O)[C@H](CC(C)C)NC(=O)[C@@H](N)CCCNC(=N)N)C(=O)NCCCC[C@H](NC(=O)[C@H](CCCNC(=N)N)NC(=O)[C@H](Cc1ccc(O)cc1)NC(=O)[C@H](CC(C)C)NC(=O)[C@@H](N)CCCNC(=N)N)C(N)=O [iK5R] (HELM PEPTIDE1{R.L.Y.R.K}|PEPTIDE2{R.L.Y.R}|PEPTIDE3{R.L.Y.R.K}|PEPTIDE4{R.L.Y.R.K}|PEPTIDE5{R.L.Y.R.K.[am]}$PEPTIDE1,PEPTIDE2,5:R3-4:R2|PEPTIDE1,PEPTIDE3,5:R2-5:R3|PEPTIDE3,PEPTIDE4,5:R2-5:R3|PEPTIDE4,PEPTIDE5,5:R2-5:R3$$$V2.0; N-terminus assumed)	
0.7 µM	0.5 µM	0.8 µM	0.7 µM	0.7 µM	0.8 µM	0.8 µM	0.7 µM	0.4 µM	0.6 µM	0.7 µM	0.6 µM	1.2 µM	0.8 µM	0.8 µM	0.5 µM	0.7 µM	0.7 µM	0.5 µM	0.7 µM	CC(C)C[C@H](NC(=O)[C@@H](N)CCCNC(=N)N)C(=O)N[C@@H](Cc1ccc(O)cc1)C(=O)N[C@@H](CCCNC(=N)N)C(=O)N[C@@H](CCCCNC(=O)[C@H](CCCCNC(=O)[C@H](CCCCNC(=O)OCC1c2ccccc2-c2ccccc21)NC(=O)[C@H](CCCNC(=N)N)NC(=O)[C@H](Cc1ccc(O)cc1)NC(=O)[C@H](CC(C)C)NC(=O)[C@@H](N)CCCNC(=N)N)NC(=O)[C@H](CCCNC(=N)N)NC(=O)[C@H](Cc1ccc(O)cc1)NC(=O)[C@H](CC(C)C)NC(=O)[C@@H](N)CCCNC(=N)N)C(N)=O [iK3R] (I: H-RLYRK-NH2 / II: H-RLYRK(Fmoc) / III: H-RLYRK; amide I:5-III:C, II:C-III:5)	
